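How tested: cells in 96-well plates exposed to compound for 48 hours at five concentrations. GI50 = concentration required for 50% inhibition of growth.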 Activity calls are given as the source filed them. Cut-off read from the data, not from the text of the source: active = GI50 up to about 1.1 µM and inactive = higher.
Key:
Experiment in all cases: DTP human tumour cell line panel, 48 h
LOX IMVI = tested on: LOX IMVI
ACHN = tested on: ACHN
COLO 205 = tested on: COLO 205
HCT-116 = tested on: HCT-116
MDA-MB-435 = tested on: MDA-MB-435
UACC-257 = tested on: UACC-257
NCI/ADR-RES = tested on: NCI/ADR-RES
SN12C = tested on: SN12C
HOP-92 = tested on: HOP-92
SK-OV-3 = tested on: SK-OV-3
IGROV-1 = tested on: IGROV-1
CCRF-CEM = tested on: CCRF-CEM
MOLT-4 = tested on: MOLT-4
SK-MEL-2 = tested on: SK-MEL-2
RPMI-8226 = tested on: RPMI-8226
SK-MEL-5 = tested on: SK-MEL-5
Malme-3M = tested on: Malme-3M
NCI-H522 = tested on: NCI-H522
K562 = tested on: K562
SF-539 = tested on: SF-539

Row | SMILES | GI50 (LOX IMVI) | GI50 (ACHN) | GI50 (COLO 205) | GI50 (HCT-116) | GI50 (MDA-MB-435) | GI50 (UACC-257) | GI50 (NCI/ADR-RES) | GI50 (SN12C) | GI50 (HOP-92) | GI50 (SK-OV-3) | GI50 (IGROV-1) | GI50 (CCRF-CEM) | GI50 (MOLT-4) | GI50 (SK-MEL-2) | GI50 (RPMI-8226) | GI50 (SK-MEL-5) | GI50 (Malme-3M) | GI50 (NCI-H522) | GI50 (K562) | GI50 (SF-539)
1 | C=CCc1cccc2cc(C(N)=O)c(=N)oc12 | 84.7 µM (inactive) | 61.9 µM (inactive) | > 100 µM (inactive) | 78.2 µM (inactive) | 95.7 µM (inactive) | > 100 µM (inactive) | > 100 µM (inactive) | > 100 µM (inactive) | 68.7 µM (inactive) | 90.2 µM (inactive) | 23.8 µM (inactive) | 52.8 µM (inactive) | > 100 µM (inactive) | 99.5 µM (inactive) | > 100 µM (inactive) | > 100 µM (inactive) | – | – | – | –
2 | c1ccc(C2CC(N3CCOCC3)=Nc3ccccc3N2)cc1 (stereo not drawn) | – | > 100 µM (inactive) | > 100 µM (inactive) | > 100 µM (inactive) | 54.3 µM (inactive) | > 100 µM (inactive) | > 100 µM (inactive) | > 100 µM (inactive) | – | > 100 µM (inactive) | 93.8 µM (inactive) | > 100 µM (inactive) | 70.6 µM (inactive) | > 100 µM (inactive) | 43.9 µM (inactive) | > 100 µM (inactive) | 80.9 µM (inactive) | > 100 µM (inactive) | 58.2 µM (inactive) | > 100 µM (inactive)
3 | Cc1nc2cn3c(c2c(=O)[nH]1)CCCCC3 | > 100 µM (inactive) | > 100 µM (inactive) | > 100 µM (inactive) | > 100 µM (inactive) | > 100 µM (inactive) | > 100 µM (inactive) | > 100 µM (inactive) | – | > 100 µM (inactive) | > 100 µM (inactive) | > 100 µM (inactive) | > 100 µM (inactive) | > 100 µM (inactive) | > 100 µM (inactive) | > 100 µM (inactive) | > 100 µM (inactive) | – | – | > 100 µM (inactive) | > 100 µM (inactive)
4 | Cc1ccc2c(c1)C(=O)c1nc(C)ccc1C2=O | 19.8 µM (inactive) | 33.3 µM (inactive) | 17.3 µM (inactive) | 23.9 µM (inactive) | 21.6 µM (inactive) | 23.6 µM (inactive) | 21.4 µM (inactive) | 26.5 µM (inactive) | – | > 100 µM (inactive) | 22.1 µM (inactive) | 27.9 µM (inactive) | 69.3 µM (inactive) | > 100 µM (inactive) | 21.3 µM (inactive) | 6.9 µM (inactive) | 4.95 µM (inactive) | 28.7 µM (inactive) | 37.1 µM (inactive) | 21.7 µM (inactive)
5 | CO/N=C\c1ccc2c(c1)Sc1ccccc1O2 | 53.5 µM (inactive) | > 100 µM (inactive) | 66.4 µM (inactive) | 40.3 µM (inactive) | 29.9 µM (inactive) | 57 µM (inactive) | 90.6 µM (inactive) | > 100 µM (inactive) | 36.4 µM (inactive) | > 100 µM (inactive) | 62.4 µM (inactive) | – | 54.7 µM (inactive) | 35.1 µM (inactive) | 55.7 µM (inactive) | – | 31.4 µM (inactive) | – | 51.8 µM (inactive) | 40.7 µM (inactive)
6 | O=c1[nH]nc(Cc2ccccc2)n1C1CCCC1 | > 100 µM (inactive) | > 100 µM (inactive) | > 100 µM (inactive) | > 100 µM (inactive) | > 100 µM (inactive) | > 100 µM (inactive) | > 100 µM (inactive) | > 100 µM (inactive) | – | > 100 µM (inactive) | > 100 µM (inactive) | > 100 µM (inactive) | > 100 µM (inactive) | – | > 100 µM (inactive) | > 100 µM (inactive) | > 100 µM (inactive) | > 100 µM (inactive) | > 100 µM (inactive) | > 100 µM (inactive)
7 | COc1ccc(C(=O)c2[nH]c(Nc3cc(C)ccn3)c(C(=S)Nc3ccccc3)c2N)cc1 | 18.7 µM (inactive) | 30.4 µM (inactive) | 19.4 µM (inactive) | 20.7 µM (inactive) | 19.4 µM (inactive) | 15.9 µM (inactive) | 3.49 µM (inactive) | 18.2 µM (inactive) | – | 19.5 µM (inactive) | 12.2 µM (inactive) | – | 23.4 µM (inactive) | 10.1 µM (inactive) | 13.3 µM (inactive) | – | 14.6 µM (inactive) | 13.8 µM (inactive) | 25.1 µM (inactive) | 18.3 µM (inactive)
8 | CC1C2C=CC1C(c1c3ccc(=O)c(O)c-3oc3c(O)c(O)ccc13)C2C(=O)O (stereo not drawn) | 20.9 µM (inactive) | 53.5 µM (inactive) | > 100 µM (inactive) | 27.8 µM (inactive) | 19.6 µM (inactive) | > 100 µM (inactive) | > 100 µM (inactive) | 24 µM (inactive) | 75 µM (inactive) | > 100 µM (inactive) | > 100 µM (inactive) | 1.01 µM (active) | 21.6 µM (inactive) | > 100 µM (inactive) | 23.2 µM (inactive) | 91.6 µM (inactive) | – | – | 21.4 µM (inactive) | –
9 | c1cc(C2N3CCCN2CC3)ccn1 (stereo not drawn) | 57.9 µM (inactive) | > 100 µM (inactive) | > 100 µM (inactive) | 36.9 µM (inactive) | 25.5 µM (inactive) | > 100 µM (inactive) | 61 µM (inactive) | 79.8 µM (inactive) | – | > 100 µM (inactive) | 96.6 µM (inactive) | 33.4 µM (inactive) | 36.1 µM (inactive) | > 100 µM (inactive) | 24.1 µM (inactive) | 48.2 µM (inactive) | 21.9 µM (inactive) | 4.85 µM (inactive) | 28.2 µM (inactive) | –
10 | CSc1nc2c(N)ncnc2n1C | > 100 µM (inactive) | > 100 µM (inactive) | > 100 µM (inactive) | > 100 µM (inactive) | > 100 µM (inactive) | > 100 µM (inactive) | > 100 µM (inactive) | > 100 µM (inactive) | – | > 100 µM (inactive) | > 100 µM (inactive) | > 100 µM (inactive) | > 100 µM (inactive) | > 100 µM (inactive) | > 100 µM (inactive) | > 100 µM (inactive) | > 100 µM (inactive) | > 100 µM (inactive) | > 100 µM (inactive) | > 100 µM (inactive)
11 | Cc1cc2nc3n(c2cc1C)C(c1c(F)cccc1F)SC3 (stereo not drawn) | 15.7 µM (inactive) | 17.4 µM (inactive) | 20.7 µM (inactive) | 14.1 µM (inactive) | 14.2 µM (inactive) | 30.7 µM (inactive) | 16.8 µM (inactive) | 19.5 µM (inactive) | – | 62.7 µM (inactive) | > 10 µM (inactive) | 19.4 µM (inactive) | 13.7 µM (inactive) | 18.5 µM (inactive) | 25.4 µM (inactive) | 11 µM (inactive) | 20.8 µM (inactive) | 21.3 µM (inactive) | 17.6 µM (inactive) | 19.9 µM (inactive)
12 | O=C(O)Cc1cccc2c1OC(c1ccccc1)C(C(=O)c1ccccc1)C2=O (stereo not drawn) | 83.8 µM (inactive) | 40.3 µM (inactive) | 67.6 µM (inactive) | 33 µM (inactive) | 35 µM (inactive) | > 100 µM (inactive) | > 100 µM (inactive) | 45.8 µM (inactive) | – | 2.07 µM (inactive) | 38.7 µM (inactive) | 41.2 µM (inactive) | 43.1 µM (inactive) | – | 33.6 µM (inactive) | > 100 µM (inactive) | 63.4 µM (inactive) | 43.2 µM (inactive) | 32.7 µM (inactive) | 51.5 µM (inactive)

Source: ChEMBL document CHEMBL1201862, “PubChem BioAssay data set” (2004)
